The results in this text go back to KR20240040049A, “신규 화합물 및 이를 포함하는 염증성 질환과 암에 대한 진단 및 치료에 사용되는 mri 조영제” (주식회사 테라노큐어, priority 2022, dated 2024).

Data set [1] is described as follows: r1 relaxivity of gadolinium complexes. It is filed as physicochemical. Particulars: in words; comparison among compounds.
Data set [2] can be described thus: water solubility at 25℃. Format: physicochemical. Particulars: for solubility: water.
Data set [3] concerns PARP. The data set can be described thus: acute hepatitis animal model (LPS and D-galactosamine): PARP. Format: in vivo. Particulars: Gd-galangin i.v. 0.1 mmol/kg, galangin oral.
The test system of data set [4] is NLRP3. Briefly: acute hepatitis animal model (LPS and D-galactosamine): NLRP3. Format: in vivo. As to conditions: Gd-galangin i.v. 0.1 mmol/kg, galangin oral.
Data set [5] concerns LPS-induced inflamed tissue (LPS로 유발된 염증 조직). The data set can be described thus: H&E staining of LPS-induced inflamed tissue. Format: in vivo.

The structures appear in SMILES notation. Values after ≈ are worked out from the molar mass of the structure shown. “Also recorded” adds a separate entry of the source.

Turning to `O=C([O-])CN1CCN(CC(=O)[O-])CCN(CC(=O)O)CCN(CC(=O)[O-])CC1.[Gd+3]` [Gd-DOTA], the r1 relaxivity entry in data set [1] is listed as “유사한 값”.
For orientation: solubility means the dissolved amount per volume that the medium holds. A low value points to little dissolved substance. Regarding `O=c1c(O)c(-c2ccccc2)oc2cc(O)cc(O)c12` [galangin, 3,5,7-트리히드록시플라본], in data set [2], the solubility in water came to 2117 µM (≈ 572 µg/mL), the “solubility in water (words)” value is listed as “거의 물에 녹지 않는 불용성 물질; also recorded: Insoluble” and the concentration in solution (solubility) was 572 µg/mL (≈ 2120 µM). The “effect on PARP” value in data set [3] is “아무런 효과를 보이지 않았으며”. For the same compound, the “effect on NLRP3” value in data set [4] is given as “아무런 효과를 보이지 않았으며”. Also, the “intercellular spacing / closeness to normal tissue” value in data set [5] (Gd-galangin i.v. versus galangin oral) is “전반적으로 더 벌어져”. Also, the “histological state compared with LPS alone” value in data set [5] (Gd-galangin i.v., galangin oral) is on record as “더 나은 상태”.
In the case of `O=c1cc(-c2ccccc2)oc2cc(O)cc(O)c12` [chrysin], in data set [2], the solubility in water amounted to 330 µM (≈ 83.9 µg/mL), the “solubility in water (words)” value is “거의 물에 녹지 않는 불용성 물질; also recorded: Insoluble” and the concentration in solution (solubility) came to 84 µg/mL (≈ 330 µM).
For `O=C([O-])CN1CCN(CC(=O)[O-])CCN(C(CO)C(O)CO)CCN(CC(=O)[O-])CC1.[Gd+3]` (stereo not drawn) [Gd-BT-DO3A], the r1 relaxivity entry in data set [1] is listed as “유사한 값”.
Consider `O=c1cc(-c2ccccc2)oc2cc(O)ccc12` [7-hydroxyflavone, 7-Hydroxyflavone], for which, in data set [2], the solubility in water came to 356 µM (≈ 84.8 µg/mL), the “solubility in water (words)” value was “거의 물에 녹지 않는 불용성 물질; also recorded: Insoluble” and the solubility turned out to be 85 µg/mL (≈ 357 µM).
